Patent US20230295133A1, “PROCESS FOR PREPARING A COMPOUND USEFUL TO TREAT MYCOSES” (PULMOCIDE LIMITED, priority 2014, published 2023)
≈ marks a conversion by molar mass, not a printed value.

Assays:
[1] = system: Aspergillus fumigatus NCPF7100; assay: Broth microdilution assay (modified EUCAST); format: cell-based; settings: Aspergillus fumigatus, NCPF7100, read-out: MIC75 against Aspergillus fumigatus isolate NCPF7100
[2] = system: Aspergillus fumigatus NCPF7099; assay: Broth microdilution assay (modified EUCAST); format: cell-based; settings: Aspergillus fumigatus, NCPF7099, n = 3, read-out: MIC75 against Aspergillus fumigatus isolate NCPF7099
Description: (§1) This assay was conducted using a modified method published by EUCAST (Rodriguez-Tudela et al., 2008). Spores of aspergillus fumigatus (NCPF2010, NCPF7010 (Methionine 220 mutation), NCPF7099 (Glycine G54 mutation) from Public Health England, Wiltshire; TR34/L98H mutants from St Louis Hospital, Paris, France) were cultured in Sabouraud dextrose agar for 3 days. A stock spore suspension was prepared from a Sabouraud dextrose agar culture by washing with PBS-tween (10 mL; PBS containing 0.05% Tween-20, 100 U/mL Penicillin and 100 U/mL Streptomycin). The spore count was assessed using a Neubauer haemocytometer and then adjusted to 10^6 spores/mL with PBS. A working suspension of spores (2 × 10^5 spores/mL) was prepared in filter sterilised, BSA MOPS RPMI-1640 (50 mL; RPMI-1640 containing 2 mM L-glutamine, 0.5% BSA, 2% glucose, 0.165 M MOPS, buffered to pH 7 with NaOH). For the assay, BSA MOPS RPMI-1640 (50 µL/well) was added throughout the 384-well plate (Catalogue number 353962, BD Falcon, Oxford, UK) first. Test compounds (0.5 µL DMSO solution) were then added in quadruplicate using an Integra VIAFLO 96 (Integra, Zizers, Switzerland), and mixed well using a plate mixer. Subsequently 50 µL of the working spore suspension prepared above was added to all wells except non-spore control wells. For non-spore control wells, BSA MOPS-RPMI solution (50 µL/well) was added instead. The plate was covered with a plastic lid, and incubated (35° C. with ambient air) for 48 hr. The OD of each well at 530 nm was determined using a multi-scanner (Clariostar: BMG, Buckinghamshire, UK). The percentage inhibition for each well was calculated and the MIC50, MIC75 and MIC90 values were calculated from the concentration-response curve generated for each test compound.

[3] = system: Aspergillus fumigatus L98H (TR34/L98H); assay: Broth microdilution assay (modified EUCAST); format: cell-based; settings: Aspergillus fumigatus, read-out: MIC75 against Aspergillus fumigatus isolate L98H
Description: as §1

[4] = system: Aspergillus fumigatus NCPF2010; assay: Broth microdilution assay (modified EUCAST); format: cell-based; settings: Aspergillus fumigatus, NCPF2010, read-out: MIC75 against Aspergillus fumigatus isolate NCPF2010
Description: as §1

[5] = system: aspergillus fumigatus infection of BEAS2B cells; assay: Aspergillus fumigatus infection of bronchial epithelial cells (GM in supernatant); format: cell-based; settings: bronchial epithelial cells infected with Aspergillus fumigatus; read-out: MIC50 Infection of BEAS2B cells
Description: BEAS2B cells were seeded in 96-well plates (100 µL; 30,000 cells / well; Catalogue No 3596, Sigma Aldrich, Dorset, UK) in 10% FBS RPMI-1640 and were then incubated (37° C., 5% CO2) for one day before experimentation. Test compounds (0.5 µL DMSO solution) or vehicle (DMSO) were added to each well to give a final DMSO concentration of 0.5%. BEAS2B cells were incubated with test compounds for 1 hr (35° C., 5% CO2) before infection with aspergillus fumigatus (20 µL; Public Health England) conidia suspension (0.5×10^5 /ml in 10% FBS RPMI-1640). The plate was incubated for 24 hr (35° C., 5% CO2). Supernatant (50 µL) was collected and transferred to a PCR plate (Catalogue No L1402-9700, Starlab, Milton Keynes, UK), which was frozen (-20° C.) until use. After thawing, supernatant (5 µL) was diluted 1:20 by adding R7-PBS solution (95 µL; 1:4 R7 to PBS; Bio-Rad Laboratories, Redmond, WA, USA). GM levels in these samples (50 µL) were measured using Platelia GM-EIA kits (Bio-Rad Laboratories, Redmond, WA, USA). The percentage inhibition for each well was calculated and the IC50 value was calculated from the concentration-response curve generated for each test compound.

[6] = Cell viability: resazurin assay; format: cell-based, human; settings: human, BEAS2B cells; n = 3-5
Description: BEAS2B cells were seeded in 384-well plates (100 µL; 3000 / well /; BD Falcon, Catalogue No 353962) in RPMI-LHC8 (RPMI-1640 and LHC8 media combined in equal proportions) one day before experimentation. For cell-free control wells, RPMI-LHC8 (100 µL) was added. Test compounds (0.5 µL of a DMSO solution) were added to give a final DMSO concentration of 0.5% using an Integra VIAFLO 96 (Integra, Zizers, Switzerland). BEAS2B cells were incubated with each test compound for 1 day (37° C. / 5% CO2 in RPMI-LHC8). After addition of resazurin stock solution (5 µL, 0.04%) the plates were incubated for a further 4 hr (37° C. / 5% CO2). The fluorescence of each well at 545 nm (excitation) and 590 nm (emission) was determined using a multi-scanner (Clariostar: BMG Labtech). The percentage loss of cell viability was calculated for each well relative to vehicle (0.5% DMSO) treatment. Where appropriate, a CC50 value was calculated from the concentration-response curve generated from the concentration-response curve for each test compound.

Row | SMILES | MIC [1] [µM] | MIC [2] [µM] | MIC [3] [µM] | MIC [4] [µM] | MIC50 [5] [µM] | CC50 at 1 day [6] [µM]
1 | NS(=O)(=O)c1ccc(NC(=O)c2ccc(N3CCN(c4ccc(OCC5CO[C@@](Cn6cncn6)(c6ccc(F)cc6F)C5)c(F)c4)CC3)cc2)cc1 (stereo in doubt) [Example 22, 4-(4-(4-(((3R,5R)-5-((1H-1,2,4-triazol-1-yl)methyl)-5-(2,4-difluorophenyl)tetrahydrofuran-3-yl)methoxy)-3-fluorophenyl)piperazin-1-yl)-N-(4-sulfamoylphenyl)benzamide] | 0.022 (≈ 0.0165 µg/mL) | 0.0164 (≈ 0.0123 µg/mL) | > 1.34 | 0.0113 (≈ 0.00845 µg/mL) | 0.00477 (≈ 0.00357 µg/mL) | > 13.4
2 | Cc1cc(N2CCN(c3ccc(C(=O)Nc4ccc(Cl)cc4F)cc3)CC2)ccc1OC[C@@H]1CO[C@@](Cn2cncn2)(c2ccc(F)cc2F)C1 [Example 29, 4-(4-(4-(((3R, 5R)-5-((1H-1,2,4-triazol-1-yl)methyl)-5-(2,4-difluorophenyl)tetrahydrofuran-3-yl)methoxy)-3-methylphenyl)piperazin-1-yl)-N-(4-chloro-2-fluorophenyl)benzamide] | 0.0538 (≈ 0.0386 µg/mL) | 0.037 (≈ 0.0265 µg/mL) | 0.12 (≈ 0.0861 µg/mL) | 0.0285 (≈ 0.0204 µg/mL) | 0.0145 (≈ 0.0104 µg/mL) | > 13.9
3 | O=C(Nc1ccc(F)cn1)c1ccc(N2CCN(c3ccc(OCC4CO[C@@](Cn5cncn5)(c5ccc(F)cc5F)C4)c(F)c3)CC2)cc1 (stereo in doubt) [Example 40, 4-(4-(4-(((3R, 5R)-5-((1H-1,2,4-triazol-1-yl)methyl)-5-(2,4-difluorophenyl)tetrahydrofuran-3-yl)methoxy)-3-fluorophenyl)piperazin-1-yl)-N-(5-fluoropyridin-2-yl)benzamide] | 0.0146 (≈ 0.01 µg/mL) | 0.024 (≈ 0.0165 µg/mL) | 0.0731 (≈ 0.0503 µg/mL) | 0.0125 (≈ 0.0086 µg/mL) | 0.00687 (≈ 0.00472 µg/mL) | > 14.5
4 | Cc1cc(N2CCN(c3ccc(C(=O)Nc4cccc(C#N)c4)cc3)CC2)ccc1OC[C@@H]1CO[C@@](Cn2cncn2)(c2ccc(F)cc2F)C1 [Example 8, 4-(4-(4-(((3R,5R)-5-((1H-1,2,4-triazol-1-yl)methyl)-5-(2,4-difluorophenyl)tetrahydrofuran-3-yl)methoxy)-3-methylphenyl)piperazin-1-yl)-N-(3-cyanophenyl)benzamide] | > 1.45 | > 1.45 | > 1.45 | 0.0127 (≈ 0.00876 µg/mL) | 0.0142 (≈ 0.00979 µg/mL) | 0.548
5 | Cc1cc(N2CCN(c3ccc(C(=O)Nc4ccc(F)cc4)c(C)c3)CC2)ccc1OC[C@@H]1CO[C@@](Cn2cncn2)(c2ccc(F)cc2F)C1 [Example 33, 4-(4-(4-(((3R, 5R)-5-((1H-1,2,4-triazol-1-yl)methyl)-5-(2,4-difluorophenyl)tetrahydrofuran-3-yl)methoxy)-3-methylphenyl)piperazin-1-yl)-N-(4-fluorophenyl)-2-methylbenzamide] | 0.0236 (≈ 0.0164 µg/mL) | 0.0489 (≈ 0.0341 µg/mL) | 0.0679 (≈ 0.0473 µg/mL) | 0.0135 (≈ 0.00941 µg/mL) | 0.0435 (≈ 0.0303 µg/mL) | > 14.4
6 | Cc1cc(N2CCN(c3ccc(C(=O)Nc4ccc(F)cc4)cc3)CC2)cc(C)c1OC[C@@H]1CO[C@@](Cn2cncn2)(c2ccc(F)cc2F)C1 [Example 15, 4-(4-(4-(((3R,5R)-5-((1H-1,2,4-triazol-1-yl)methyl)-5-(2,4-difluorophenyl)tetrahydrofuran-3-yl)methoxy)-3,5-dimethylphenyl)piperazin-1-yl)-N-(4-fluorophenyl)benzamide] | 0.00845 (≈ 0.00589 µg/mL) | 0.0184 (≈ 0.0128 µg/mL) | > 1.44 | 0.029 (≈ 0.0202 µg/mL) | 0.00764 (≈ 0.00532 µg/mL) | > 14.4
7 | Cc1cc(N2CCN(c3ccc(C(=O)Nc4c(F)cc(F)cc4F)cc3)CC2)ccc1OC[C@@H]1CO[C@@](Cn2cncn2)(c2ccc(F)cc2F)C1 [Example 31, 4-(4-(4-(((3R, 5R)-5-((1H-1,2,4-triazol-1-yl)methyl)-5-(2,4-difluorophenyl)tetrahydrofuran-3-yl)methoxy)3-methylphenyl)piperazin-1-yl)-N-(2,4,6-trifluorophenyl)benzamide] | 0.0679 (≈ 0.0488 µg/mL) | 0.0109 (≈ 0.00783 µg/mL) | 0.163 (≈ 0.117 µg/mL) | 0.0439 (≈ 0.0316 µg/mL) | 0.0107 (≈ 0.00769 µg/mL) | > 13.9
8 | Cc1cc(N2CCN(c3ccc(C(=O)Nc4ccc(C#N)cc4)cc3)CC2)ccc1OC[C@@H]1CO[C@@](Cn2cncn2)(c2ccc(F)cc2F)C1 [Example 9, 4-(4-(4-(((3R,5R)-5-((1H-1,2,4-triazol-1-yl)methyl)-5-(2,4-difluorophenyl)tetrahydrofuran-3-yl)methoxy)-3-methylphenyl)piperazin-1-yl)-N-(4-cyanophenyl)benzamide] | 0.0232 (≈ 0.016 µg/mL) | 0.00739 (≈ 0.0051 µg/mL) | 0.114 (≈ 0.0786 µg/mL) | 0.0291 (≈ 0.0201 µg/mL) | 0.00521 (≈ 0.00359 µg/mL) | > 14.5
9 | Cc1cc(N2CCN(c3ccc(C(=O)Nc4cc(C#N)ccn4)cc3)CC2)ccc1OC[C@@H]1CO[C@@](Cn2cncn2)(c2ccc(F)cc2F)C1 [Example 37, 4-(4-(4-(((3R,5R)-5-((1H-1,2,4-triazol-1-yl)methyl)-5-(2,4-difluorophenyl)tetrahydrofuran-3-yl)methoxy)-3-methylphenyl)piperazin-1-yl)-N-(4-cyanopyridin-2-yl)benzamide] | 0.022 (≈ 0.0152 µg/mL) | 0.0246 (≈ 0.017 µg/mL) | 0.194 (≈ 0.134 µg/mL) | 0.0284 (≈ 0.0196 µg/mL) | 0.0188 (≈ 0.013 µg/mL) | > 14.5
10 | Cc1cc(N2CCN(c3ccc(C(=O)Nc4ccc(F)cc4)cc3)CC2)c(C)cc1OC[C@@H]1CO[C@@](Cn2cncn2)(c2ccc(F)cc2F)C1 [Example 5, 4-(4-(4-(((3R,5R)-5-((1H-1,2,4-Triazol-1-yl)Methyl)-5-(2,4-Difluorophenyl) Tetrahydrofuran-3-yl)Methoxy)-2,5-Dimethylphenyl)Piperazin-1-yl)-N-(4-Fluorophenyl) Benzamide] | 0.0966 (≈ 0.0673 µg/mL) | 0.157 (≈ 0.109 µg/mL) | 0.162 (≈ 0.113 µg/mL) | 0.0133 (≈ 0.00927 µg/mL) | 0.123 (≈ 0.0857 µg/mL) | > 14.4
11 | Cc1cc(N2CCN(c3ccc(C(=O)Nc4ccc(S(=O)(=O)N(C)C)cc4)cc3)CC2)ccc1OC[C@@H]1CO[C@@](Cn2cncn2)(c2ccc(F)cc2F)C1 [Example 21] | 0.0317 (≈ 0.0245 µg/mL) | 0.0211 (≈ 0.0163 µg/mL) | 0.0517 (≈ 0.0399 µg/mL) | 0.0374 (≈ 0.0289 µg/mL) | 0.00386 (≈ 0.00298 µg/mL) | > 13
